{"source": "paper PMC3025903", "about": "(Molecular Pain, 2010)", "key": {"[1]": {"molecular_target": "T1, human N-type Ca^2+ channels stably expressed in HEK293 cells (C2D7 cells) (Homo sapiens, UniProt Q00975)", "T1 construct": "expressed in transfected cells", "T1 sequence (Q00975 whole entry, looked up)": "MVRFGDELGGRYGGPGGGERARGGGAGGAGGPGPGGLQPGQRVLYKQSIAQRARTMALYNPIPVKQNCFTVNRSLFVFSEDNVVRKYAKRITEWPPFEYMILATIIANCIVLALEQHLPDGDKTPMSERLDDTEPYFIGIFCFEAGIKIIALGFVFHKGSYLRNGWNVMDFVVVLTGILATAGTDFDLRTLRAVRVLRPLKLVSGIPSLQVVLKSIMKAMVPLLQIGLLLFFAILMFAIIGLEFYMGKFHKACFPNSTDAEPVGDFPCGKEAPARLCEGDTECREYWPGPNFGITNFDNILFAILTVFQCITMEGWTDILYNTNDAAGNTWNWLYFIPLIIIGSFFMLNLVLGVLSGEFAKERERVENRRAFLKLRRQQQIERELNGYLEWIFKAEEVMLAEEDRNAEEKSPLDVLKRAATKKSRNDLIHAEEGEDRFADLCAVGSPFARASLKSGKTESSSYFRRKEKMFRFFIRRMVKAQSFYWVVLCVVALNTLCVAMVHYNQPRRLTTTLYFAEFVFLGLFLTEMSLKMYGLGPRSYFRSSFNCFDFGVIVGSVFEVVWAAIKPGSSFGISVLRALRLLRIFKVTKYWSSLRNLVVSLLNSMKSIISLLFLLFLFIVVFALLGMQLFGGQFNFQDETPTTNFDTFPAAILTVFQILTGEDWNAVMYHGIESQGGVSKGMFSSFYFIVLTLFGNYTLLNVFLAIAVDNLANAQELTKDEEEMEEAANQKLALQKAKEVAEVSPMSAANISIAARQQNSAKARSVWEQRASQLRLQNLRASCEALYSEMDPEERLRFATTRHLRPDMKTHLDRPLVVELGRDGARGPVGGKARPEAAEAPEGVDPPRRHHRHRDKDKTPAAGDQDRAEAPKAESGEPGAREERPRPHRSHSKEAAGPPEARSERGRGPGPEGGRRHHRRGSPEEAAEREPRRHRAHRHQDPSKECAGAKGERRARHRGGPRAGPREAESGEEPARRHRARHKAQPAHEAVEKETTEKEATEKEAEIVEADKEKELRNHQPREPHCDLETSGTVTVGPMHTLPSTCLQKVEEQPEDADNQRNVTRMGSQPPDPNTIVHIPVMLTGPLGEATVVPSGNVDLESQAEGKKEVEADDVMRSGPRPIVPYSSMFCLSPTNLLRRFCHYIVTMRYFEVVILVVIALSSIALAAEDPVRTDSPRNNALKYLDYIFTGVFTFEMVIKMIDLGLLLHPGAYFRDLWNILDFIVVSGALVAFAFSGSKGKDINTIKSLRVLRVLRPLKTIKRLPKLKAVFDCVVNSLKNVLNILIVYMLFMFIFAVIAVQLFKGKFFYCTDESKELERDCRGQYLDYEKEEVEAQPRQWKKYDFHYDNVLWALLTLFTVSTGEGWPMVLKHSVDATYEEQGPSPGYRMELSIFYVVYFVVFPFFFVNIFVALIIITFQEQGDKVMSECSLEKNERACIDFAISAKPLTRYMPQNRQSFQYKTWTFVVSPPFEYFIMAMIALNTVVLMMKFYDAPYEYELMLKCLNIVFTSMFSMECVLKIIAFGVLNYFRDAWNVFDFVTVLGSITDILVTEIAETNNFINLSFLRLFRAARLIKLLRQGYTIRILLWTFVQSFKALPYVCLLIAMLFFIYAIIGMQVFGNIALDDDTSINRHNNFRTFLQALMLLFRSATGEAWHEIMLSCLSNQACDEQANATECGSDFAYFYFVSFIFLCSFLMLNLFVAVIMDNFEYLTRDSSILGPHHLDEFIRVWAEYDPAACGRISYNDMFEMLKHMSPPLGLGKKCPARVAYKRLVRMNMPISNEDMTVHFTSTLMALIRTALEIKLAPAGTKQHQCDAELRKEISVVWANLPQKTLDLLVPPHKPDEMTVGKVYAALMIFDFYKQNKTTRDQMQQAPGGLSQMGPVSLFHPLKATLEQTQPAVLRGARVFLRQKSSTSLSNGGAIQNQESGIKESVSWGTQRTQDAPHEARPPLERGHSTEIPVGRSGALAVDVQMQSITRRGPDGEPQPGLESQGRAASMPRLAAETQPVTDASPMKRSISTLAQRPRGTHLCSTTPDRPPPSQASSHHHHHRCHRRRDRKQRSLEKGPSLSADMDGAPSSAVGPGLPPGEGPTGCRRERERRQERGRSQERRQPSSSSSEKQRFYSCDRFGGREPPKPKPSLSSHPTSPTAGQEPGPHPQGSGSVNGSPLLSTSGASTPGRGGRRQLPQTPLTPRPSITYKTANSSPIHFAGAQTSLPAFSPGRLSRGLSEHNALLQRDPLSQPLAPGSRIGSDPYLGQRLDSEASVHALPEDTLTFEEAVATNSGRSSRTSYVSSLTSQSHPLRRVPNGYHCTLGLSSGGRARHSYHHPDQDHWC", "assay": "cell-based"}, "[2]": {"system": "Sprague-Dawley rats", "conditions": "rat, in vivo, iv"}, "[3]": {"system": "Sprague-Dawley rats", "conditions": "rat, in vivo, iv; SEM"}}}
{"smiles": "CC[C@H](C)[C@@H]1NC(=O)[C@H](CCCNC(=N)N)NC(=O)[C@H](CO)NC(=O)[C@@H]2CSSC[C@@H]3NC(=O)[C@H](CO)NC(=O)CNC(=O)[C@H]([C@@H](C)O)NC(=O)[C@H](CSSC[C@H](N)C(=O)N[C@@H](CCCCN)C(=O)NCC(=O)N[C@@H]([C@@H](C)O)C(=O)NCC(=O)N[C@@H](CCCCN)C(=O)N[C@@H](CO)C(=O)N2)NC(=O)[C@H](CSSC[C@@H](C(N)=O)NC(=O)[C@H](CCCCN)NC(=O)CNC(=O)[C@H](CO)NC(=O)[C@H](CCCNC(=N)N)NC3=O)NC(=O)[C@H](CC(N)=O)NC(=O)[C@H](Cc2ccc(O)cc2)NC(=O)[C@H](C)NC1=O", "note": "[CTx-FVIA, ω-conotoxin FVIA]", "values": [{"measurement": "IC50", "setting": "[1]", "result": "0.0115 ± 0.0014", "unit": "µM"}, {"measurement": "block of N-type Ca2+ currents", "setting": "[1]", "result": "91.25 ± 1.8", "unit": "%"}, {"measurement": "steady-state level to which the currents recovered after washout", "setting": "[1]", "result": "78.4 ± 5.8", "unit": "%"}, {"measurement": "mean blood pressure 5 min after administration", "setting": "[2]", "result": "78.9 ± 3.1", "unit": "mmHg"}, {"measurement": "mean blood pressure after 5 h", "setting": "[2]", "result": "nearly recovered"}, {"measurement": "mean arterial pressure after 60 min", "setting": "[3]", "result": "79.7 ± 4.1", "unit": "mmHg"}, {"measurement": "mean arterial pressure within 3 min after injection", "setting": "[3]", "result": "56.4 ± 1.0", "unit": "mmHg"}]}
{"smiles": "CSCC[C@@H]1NC(=O)[C@H](CC(C)C)NC(=O)[C@H](CCCNC(=N)N)NC(=O)[C@H](CO)NC(=O)[C@@H]2CSSC[C@@H]3NC(=O)[C@H](CO)NC(=O)CNC(=O)[C@H]([C@@H](C)O)NC(=O)[C@H](CSSC[C@H](N)C(=O)N[C@@H](CCCCN)C(=O)NCC(=O)N[C@@H](CCCCN)C(=O)NCC(=O)N[C@@H](C)C(=O)N[C@@H](CCCCN)C(=O)N2)NC(=O)[C@H](CSSC[C@@H](C(N)=O)NC(=O)[C@H](CCCCN)NC(=O)CNC(=O)[C@H](CO)NC(=O)[C@H](CCCNC(=N)N)NC3=O)NC(=O)[C@H](CC(=O)O)NC(=O)[C@H](Cc2ccc(O)cc2)NC1=O", "note": "[CTx-MVIIA, ω-Conotoxin (CTx)-MVIIA, reference compound]", "values": [{"measurement": "block of N-type Ca2+ currents", "setting": "[1]", "result": "87.5 ± 1.9", "unit": "%"}, {"measurement": "steady-state level to which the currents recovered after washout", "setting": "[1]", "result": "19.8 ± 3.8", "unit": "%"}, {"measurement": "mean blood pressure 5 min after administration", "setting": "[2]", "result": "77.5 ± 1.7", "unit": "mmHg"}, {"measurement": "mean blood pressure after 5 h", "setting": "[2]", "result": "87.4 ± 2.6", "unit": "mmHg"}, {"measurement": "mean arterial pressure after 60 min", "setting": "[3]", "result": "65.3 ± 1.9", "unit": "mmHg"}, {"measurement": "mean arterial pressure within 3 min after injection", "setting": "[3]", "result": "57.3 ± 3.1", "unit": "mmHg"}]}
